How the values were obtained:
SETVI (Foxtail, Green) = test: Postemergence herbicidal evaluation; assay type: in vivo, Setaria viridis; settings: postemergence
Summary of the method: (§1)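 Compound is applied as a foliar spray to seedlings about two weeks old, formulated in equal parts acetone and water with 0.5% TWEEN 20 and delivered at 40 psi to give about 0.0156–0.500 kg per hectare. Injury is rated visually 0–9 after four to five weeks.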

ABUTH (Velvetleaf) [1] = test: Preemergence herbicidal evaluation; assay type: in vivo, Abutilon theophrasti; settings: rated 4-5 weeks after treatment
Summary of the method: (§2)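 Scores use a 0–9 visual scale covering stand, vigor, malformation, size and chlorosis relative to controls, rated four to five weeks after treatment. Before emergence, soil-planted seeds were sprayed with compound in aqueous acetone at roughly 0.0156–0.500 kg/ha and held in the greenhouse.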

ZEAMX (Corn, Field) [2] = test: Preemergence herbicidal evaluation; assay type: in vivo, Zea mays; settings: rated 4-5 weeks after treatment
Summary of the method: as §2

ECHCG (Barnyardgrass) [3] = test: Preemergence herbicidal evaluation; assay type: in vivo, Echinochloa crus-galli; settings: rated 4-5 weeks after treatment
Summary of the method: as §2

ABUTH (Velvetleaf) [4] = test: Postemergence herbicidal evaluation; assay type: in vivo, Abutilon theophrasti; settings: postemergence
Summary of the method: as §1

[5] = tested on: GLXMAW (Soybean, Williams); test: Preemergence herbicidal evaluation; assay type: in vivo, Glycine max, (L.) Merr. cv Williams; settings: rated 4-5 weeks after treatment
Summary of the method: as §2

ECHCG (Barnyardgrass) [6] = test: Postemergence herbicidal evaluation; assay type: in vivo, Echinochloa crus-galli; settings: postemergence
Summary of the method: as §1

[7] = tested on: CHEAL (Lambsquarters, Common); test: Postemergence herbicidal evaluation; assay type: in vivo, Chenopodium album; settings: postemergence
Summary of the method: as §1

[8] = tested on: IPOHE (Morningglory, Ivyleaf); test: Postemergence herbicidal evaluation; assay type: in vivo, Ipomoea hederacea; settings: postemergence
Summary of the method: as §1

[9] = tested on: IPOHE (Morningglory, Ivyleaf); test: Preemergence herbicidal evaluation; assay type: in vivo, Ipomoea hederacea; settings: rated 4-5 weeks after treatment
Summary of the method: as §2

ZEAMX (Corn, Field) [10] = test: Postemergence herbicidal evaluation; assay type: in vivo, Zea mays; settings: postemergence
Summary of the method: as §1

CASOB (Sicklepod) = test: Preemergence herbicidal evaluation; assay type: in vivo, Cassia obtusifolia; settings: rated 4-5 weeks after treatment
Summary of the method: as §2

CYPIR (Rice Flatsedge) = test: Postemergence weed control under flooded paddy conditions; assay type: in vivo, Cyperus iria; settings: postemergence weeds, 3-4 weeks after treatment
Summary of the method: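 Flood-water application, about 0.0313–0.500 kg/ha a.i. in aqueous/acetone 50/50 v/v; water depth 1.5–3 cm throughout. Weeds 3–5 cm, rice 1.5–2.5 leaf. Greenhouse; 0–9 visual rating vs control at 3–4 wk.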

ORYSAT (Rice, Tebonnet) = test: Postemergence herbicidal evaluation; assay type: in vivo, Oryza sativa, (L.) Tebonnet; settings: postemergence
Summary of the method: as §1

[11] = tested on: TRZAWR (Wheat, Winter, cv Riband); test: Preemergence herbicidal evaluation; assay type: in vivo, Triticum aestivum; settings: rated 4-5 weeks after treatment
Summary of the method: as §2

[12] = tested on: CHEAL (Lambsquarters, Common); test: Preemergence herbicidal evaluation; assay type: in vivo, Chenopodium album; settings: rated 4-5 weeks after treatment
Summary of the method: as §2

## Cn1c(C(F)(F)F)cc(=O)n(-c2cc(N=C3SCC(=O)N3Cc3ccccc3)c(Cl)cc2F)c1=O [Compound 26]
SETVI (Foxtail, Green); rate 0.0156 kg/ha
  SETVI herbicidal rating: 0.0
SETVI (Foxtail, Green); rate 0.0313 kg/ha
  SETVI herbicidal rating: 0.0
SETVI (Foxtail, Green); rate 0.0625 kg/ha
  SETVI herbicidal rating: 0.0
ABUTH (Velvetleaf) [1]; rate 0.0156 kg/ha
  Preemergence herbicidal rating ABUTH: 0.0
ABUTH (Velvetleaf) [1]; rate 0.0313 kg/ha
  Preemergence herbicidal rating ABUTH: 0.0
ABUTH (Velvetleaf) [1]; rate 0.0625 kg/ha
  Preemergence herbicidal rating ABUTH: 0.0
ABUTH (Velvetleaf) [1]; rate 0.1250 kg/ha
  Preemergence herbicidal rating ABUTH: 6.0
ABUTH (Velvetleaf) [1]; rate 0.2500 kg/ha
  Preemergence herbicidal rating ABUTH: 9.0
ZEAMX (Corn, Field) [2]; rate 0.0156 kg/ha
  Preemergence herbicidal rating ZEAMX: 0.0
ZEAMX (Corn, Field) [2]; rate 0.0313 kg/ha
  Preemergence herbicidal rating ZEAMX: 0.0
ZEAMX (Corn, Field) [2]; rate 0.0625 kg/ha
  Preemergence herbicidal rating ZEAMX: 2.0
ZEAMX (Corn, Field) [2]; rate 0.1250 kg/ha
  Preemergence herbicidal rating ZEAMX: 4.0
ZEAMX (Corn, Field) [2]; rate 0.2500 kg/ha
  Preemergence herbicidal rating ZEAMX: 5.0
ECHCG (Barnyardgrass) [3]; rate 0.0156 kg/ha
  Preemergence herbicidal rating ECHCG: 0.0
ECHCG (Barnyardgrass) [3]; rate 0.0313 kg/ha
  Preemergence herbicidal rating ECHCG: 0.0
ECHCG (Barnyardgrass) [3]; rate 0.0625 kg/ha
  Preemergence herbicidal rating ECHCG: 0.0
ECHCG (Barnyardgrass) [3]; rate 0.1250 kg/ha
  Preemergence herbicidal rating ECHCG: 1.0
ECHCG (Barnyardgrass) [3]; rate 0.2500 kg/ha
  Preemergence herbicidal rating ECHCG: 2.0
ABUTH (Velvetleaf) [4]; rate 0.0156 kg/ha
  ABUTH herbicidal rating: 9.0
ABUTH (Velvetleaf) [4]; rate 0.0313 kg/ha
  ABUTH herbicidal rating: 9.0
ABUTH (Velvetleaf) [4]; rate 0.0625 kg/ha
  ABUTH herbicidal rating: 9.0
[5]; rate 0.0156 kg/ha
  Preemergence herbicidal rating GLXMAW: 0.0
[5]; rate 0.0313 kg/ha
  Preemergence herbicidal rating GLXMAW: 0.0
[5]; rate 0.0625 kg/ha
  Preemergence herbicidal rating GLXMAW: 0.0
[5]; rate 0.1250 kg/ha
  Preemergence herbicidal rating GLXMAW: 0.0
[5]; rate 0.2500 kg/ha
  Preemergence herbicidal rating GLXMAW: 1.0
ECHCG (Barnyardgrass) [6]; rate 0.0156 kg/ha
  ECHCG herbicidal rating: 0.0
ECHCG (Barnyardgrass) [6]; rate 0.0313 kg/ha
  ECHCG herbicidal rating: 0.0
ECHCG (Barnyardgrass) [6]; rate 0.0625 kg/ha
  ECHCG herbicidal rating: 0.0
[7]; rate 0.0156 kg/ha
  CHEAL herbicidal rating: 9.0
[7]; rate 0.0313 kg/ha
  CHEAL herbicidal rating: 9.0
[7]; rate 0.0625 kg/ha
  CHEAL herbicidal rating: 9.0
[8]; rate 0.0156 kg/ha
  IPOHE herbicidal rating: 9.0
[8]; rate 0.0313 kg/ha
  IPOHE herbicidal rating: 9.0
[8]; rate 0.0625 kg/ha
  IPOHE herbicidal rating: 9.0
[9]; rate 0.0156 kg/ha
  Preemergence herbicidal rating IPOHE: 0.0
[9]; rate 0.0313 kg/ha
  Preemergence herbicidal rating IPOHE: 0.0
[9]; rate 0.0625 kg/ha
  Preemergence herbicidal rating IPOHE: 0.0
[9]; rate 0.1250 kg/ha
  Preemergence herbicidal rating IPOHE: 2.0
[9]; rate 0.2500 kg/ha
  Preemergence herbicidal rating IPOHE: 3.0
ZEAMX (Corn, Field) [10]; rate 0.0156 kg/ha
  ZEAMX herbicidal rating: 3.5
ZEAMX (Corn, Field) [10]; rate 0.0313 kg/ha
  ZEAMX herbicidal rating: 4.5
ZEAMX (Corn, Field) [10]; rate 0.0625 kg/ha
  ZEAMX herbicidal rating: 5.5
CASOB (Sicklepod); rate 0.0156 kg/ha
  Preemergence herbicidal rating CASOB: 0.0
CASOB (Sicklepod); rate 0.0313 kg/ha
  Preemergence herbicidal rating CASOB: 0.0
CASOB (Sicklepod); rate 0.0625 kg/ha
  Preemergence herbicidal rating CASOB: 0.0
CASOB (Sicklepod); rate 0.1250 kg/ha
  Preemergence herbicidal rating CASOB: 0.0
CASOB (Sicklepod); rate 0.2500 kg/ha
  Preemergence herbicidal rating CASOB: 0.0
CYPIR (Rice Flatsedge); rate 0.0313 kg/ha
  Herbicidal rating CYPIR: 2.0
CYPIR (Rice Flatsedge); rate 0.0625 kg/ha
  Herbicidal rating CYPIR: 4.0
CYPIR (Rice Flatsedge); rate 0.1250 kg/ha
  Herbicidal rating CYPIR: 7.0
CYPIR (Rice Flatsedge); rate 0.2500 kg/ha
  Herbicidal rating CYPIR: 9.0
ORYSAT (Rice, Tebonnet); rate 0.0156 kg/ha
  ORYSAT herbicidal rating: 0.5
ORYSAT (Rice, Tebonnet); rate 0.0313 kg/ha
  ORYSAT herbicidal rating: 1.0
ORYSAT (Rice, Tebonnet); rate 0.0625 kg/ha
  ORYSAT herbicidal rating: 1.5
[11]; rate 0.0156 kg/ha
  Preemergence herbicidal rating TRZAWR: 0.0
[11]; rate 0.0313 kg/ha
  Preemergence herbicidal rating TRZAWR: 0.0
[11]; rate 0.0625 kg/ha
  Preemergence herbicidal rating TRZAWR: 0.0
[11]; rate 0.1250 kg/ha
  Preemergence herbicidal rating TRZAWR: 0.0
[11]; rate 0.2500 kg/ha
  Preemergence herbicidal rating TRZAWR: 1.0
[12]; rate 0.0156 kg/ha
  Preemergence herbicidal rating CHEAL: 3.0
[12]; rate 0.0313 kg/ha
  Preemergence herbicidal rating CHEAL: 9.0
[12]; rate 0.0625 kg/ha
  Preemergence herbicidal rating CHEAL: 9.0
[12]; rate 0.1250 kg/ha
  Preemergence herbicidal rating CHEAL: 9.0
[12]; rate 0.2500 kg/ha
  Preemergence herbicidal rating CHEAL: 9.0

— US20020137929A1, “1 - (3-heterocyclylphenyl) isothiourea, -isourea, -guanidine and -amidine herbicidal agents” (Intellectual Property Department, BASF Aktiengesellschaft, priority 1998, published 2002)
